Results from ChEMBL document CHEMBL1201862, “PubChem BioAssay data set” (2004).
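Five compound concentrations were applied to cells in 96-well plates for 48 hours; endpoints were derived by simple linear interpolation of the resulting dose-response curve. GI50 marks 50% less growth.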 The source made the active and inactive calls. Cut-off read from the data, not from the text of the source: active = GI50 up to about 1.1 µM and inactive = higher.

Legend:
Assay in all cases: DTP human tumour cell line panel, 48 h
IGROV-1 = test system: IGROV-1
NCI/ADR-RES = test system: NCI/ADR-RES
CAKI-1 = test system: CAKI-1
SR = test system: SR
LOX IMVI = test system: LOX IMVI
HOP-62 = test system: HOP-62
ACHN = test system: ACHN
SF-295 = test system: SF-295
HL-60 = test system: HL-60
MDA-MB-231 = test system: MDA-MB-231
OVCAR-8 = test system: OVCAR-8
HOP-92 = test system: HOP-92
OVCAR-3 = test system: OVCAR-3
UO-31 = test system: UO-31
MDA-MB-435 = test system: MDA-MB-435
A498 = test system: A498
SK-MEL-28 = test system: SK-MEL-28
KM12 = test system: KM12
HCC 2998 = test system: HCC 2998
SK-OV-3 = test system: SK-OV-3

Row | SMILES | GI50 (IGROV-1) | GI50 (NCI/ADR-RES) | GI50 (CAKI-1) | GI50 (SR) | GI50 (LOX IMVI) | GI50 (HOP-62) | GI50 (ACHN) | GI50 (SF-295) | GI50 (HL-60) | GI50 (MDA-MB-231) | GI50 (OVCAR-8) | GI50 (HOP-92) | GI50 (OVCAR-3) | GI50 (UO-31) | GI50 (MDA-MB-435) | GI50 (A498) | GI50 (SK-MEL-28) | GI50 (KM12) | GI50 (HCC 2998) | GI50 (SK-OV-3)
1 | O=C(O)c1ccccc1C1c2ccccc2Oc2ccccc21 | 76 µM (inactive) | 59.7 µM (inactive) | 34.1 µM (inactive) | 41.9 µM (inactive) | 98.4 µM (inactive) | 41.3 µM (inactive) | 34.6 µM (inactive) | 40.2 µM (inactive) | 39 µM (inactive) | > 100 µM (inactive) | 96.6 µM (inactive) | 19.1 µM (inactive) | 27.9 µM (inactive) | 65.8 µM (inactive) | 52.4 µM (inactive) | 27.7 µM (inactive) | > 100 µM (inactive) | 62.2 µM (inactive) | – | –
2 | Sc1ncc2[nH]nnc2n1 | > 100 µM (inactive) | > 100 µM (inactive) | > 100 µM (inactive) | > 100 µM (inactive) | > 100 µM (inactive) | > 100 µM (inactive) | > 100 µM (inactive) | > 100 µM (inactive) | > 100 µM (inactive) | > 100 µM (inactive) | > 100 µM (inactive) | > 100 µM (inactive) | > 100 µM (inactive) | > 100 µM (inactive) | > 100 µM (inactive) | > 100 µM (inactive) | > 100 µM (inactive) | > 100 µM (inactive) | > 100 µM (inactive) | –
3 | NNc1nnc(-c2nnc(NN)o2)o1 | > 10 µM (inactive) | > 10 µM (inactive) | > 10 µM (inactive) | > 10 µM (inactive) | – | > 10 µM (inactive) | > 10 µM (inactive) | > 10 µM (inactive) | > 10 µM (inactive) | > 10 µM (inactive) | > 10 µM (inactive) | > 10 µM (inactive) | > 10 µM (inactive) | > 10 µM (inactive) | > 10 µM (inactive) | > 10 µM (inactive) | > 10 µM (inactive) | > 10 µM (inactive) | > 10 µM (inactive) | –
4 | CC(C)=CC(=O)c1[nH]c2ccccc2c1CC(=O)NCCc1c[nH]cn1 | > 100 µM (inactive) | > 100 µM (inactive) | > 100 µM (inactive) | > 100 µM (inactive) | > 100 µM (inactive) | – | > 100 µM (inactive) | > 100 µM (inactive) | > 100 µM (inactive) | > 100 µM (inactive) | > 100 µM (inactive) | > 100 µM (inactive) | > 100 µM (inactive) | > 100 µM (inactive) | > 100 µM (inactive) | > 100 µM (inactive) | > 100 µM (inactive) | > 100 µM (inactive) | > 100 µM (inactive) | > 100 µM (inactive)
5 | CC1OC(O[C@@H]2OC=C(C=O)[C@@]3(O)CC[C@H](C)[C@@H]23)C(O)C(O)C1O (some centres not stated) | > 100 µM (inactive) | > 100 µM (inactive) | > 100 µM (inactive) | > 100 µM (inactive) | > 100 µM (inactive) | > 100 µM (inactive) | > 100 µM (inactive) | > 100 µM (inactive) | > 100 µM (inactive) | > 100 µM (inactive) | > 100 µM (inactive) | > 100 µM (inactive) | > 100 µM (inactive) | > 100 µM (inactive) | > 100 µM (inactive) | > 100 µM (inactive) | > 100 µM (inactive) | > 100 µM (inactive) | > 100 µM (inactive) | > 100 µM (inactive)
6 | COC(=O)c1ccccc1C1CN=NC12Cc1c(ccc3c1CCC3)C2=O (configuration not stated) | 88.7 µM (inactive) | 31.1 µM (inactive) | > 100 µM (inactive) | 46.2 µM (inactive) | 23.8 µM (inactive) | > 100 µM (inactive) | 72.4 µM (inactive) | 47.3 µM (inactive) | 23.4 µM (inactive) | 67.8 µM (inactive) | 92.5 µM (inactive) | 27.4 µM (inactive) | 96.2 µM (inactive) | 80.5 µM (inactive) | 23.9 µM (inactive) | – | 95.1 µM (inactive) | 38.4 µM (inactive) | > 100 µM (inactive) | > 100 µM (inactive)
7 | CN1C2CCC1CC(CC(=O)NC(c1ccc(F)cc1)c1ccc(F)cc1)C2 (configuration not stated) | > 100 µM (inactive) | > 100 µM (inactive) | > 100 µM (inactive) | 30.2 µM (inactive) | 80 µM (inactive) | > 100 µM (inactive) | > 100 µM (inactive) | > 100 µM (inactive) | 0.242 µM (active) | > 100 µM (inactive) | > 100 µM (inactive) | 60 µM (inactive) | > 100 µM (inactive) | 56.1 µM (inactive) | 35.6 µM (inactive) | > 100 µM (inactive) | 22.5 µM (inactive) | > 100 µM (inactive) | – | > 100 µM (inactive)
